Read-outs that look alike come from different tables or passages of the source.
How the values were obtained:
[1] = target: human recombinant 5-HT2A receptor (Homo sapiens (Human), UniProt P28223); test: 5-HT2A receptor binding inhibition test ([3H]-Ketanserin); conditions: Jump-In HEK cell membrane
Procedure: Test Example 1: 5-HT2A Receptor Binding Inhibition Test
(§1) (Each Experimental Condition)
Cell membrane: Jump-In HEK cell membrane (expressing human recombinant 5-HT2A receptor)
(§2) Assay buffer: Tris-HCl 50 mmol/L (pH 7.4) containing NaCl 120 mmol/L, MgCl2.6H2O 1 mmol/L, KCl 5 mmol/L, 0.1% BSA, and CaCl2 2 mmol/L
Radioactive ligand: [^3H]-Ketanserin around Kd value calculated by the following method
(§3) Non-specific ligand: Serotonin HCl
(§4) The Kd value was calculated when the lot of cell membrane was changed. In advance, 0.5 μL of a 1 mmol/L compound for non-specific binding calculation dissolved in DMSO or DMSO was dispensed into a microplate, and the cell membrane was diluted with an Assay buffer. The radioactive ligand solution was serially diluted and the count was confirmed with a liquid scintillator. Assay buffer containing diluted cell membrane was dispensed into a microplate at 50 μL/well. Then, the radioactive ligand solution was dispensed into a microplate at 50 μL/well, and the plate was sealed. It was allowed to stand at room temperature (25° C.) for 1.5 hours. During this period, 50 mmol/L Tris-HCl (pH 7.4) was dispensed into a GF/B UniFilter plate at 50 μL/well and allowed to stand at 4° C. for 1 hour or longer. After that, filtration was performed with Cell harvester (PerkinElmer). The radioactive ligand solution was dispensed into an empty well of the GF/B UniFilter plate at 10 μL/well. After the GF/B UniFilter plate was dried at room temperature, MicroScinti 20 was dispensed into the GF/B UniFilter plate at 50 μL/well, and the plate was sealed. The GF/B UniFilter plate was allowed to stand overnight at room temperature. The radioactivity of [^3H]-Ketanserin bound to the 5-HT2A receptor was measured using Microbeta2 (PerkinElmer) at a measurement time of 1 min/well. The Saturation curve was drawn from the measured value, and the Kd value was calculated from the slope of the Scatchard Plot.
(§5) (Binding Test of the Compound According to the Present Invention)
(§6) In advance, 0.5 μL of the compound solution dissolved in DMSO was dispensed into a microplate, and the cell membrane and the hot ligand were diluted with Assay buffer, respectively. Then, the Assay buffer containing the diluted cell membrane was dispensed into a microplate at 50 μL/well. Then, the radioactive ligand solution was dispensed into a microplate at 50 μL/well, and the plate was sealed. Then, it was allowed to stand at room temperature (25° C.) for 1.5 hours. During this period, 50 mmol/L Tris-HCl (pH 7.4) was dispensed into a GF/B UniFilter plate at 50 μL/well and allowed to stand at 4° C. for 1 hour or longer. After that, filtration was performed with Cell harvester (PerkinElmer). After the GF/B UniFilter plate was dried at room temperature, MicroScinti 20 was dispensed into the GF/B UniFilter plate at 50 μL/well, and the plate was sealed. The GF/B UniFilter plate was allowed to stand overnight at room temperature. The radioactivity of [^3H]-Ketanserin bound to the 5-HT2A receptor was measured using Microbeta2 (PerkinElmer) at a measurement time of 1 min/well. The non-specific binding was calculated from the radioactivity of [^3H]-Ketanserin in the presence of […] Serotonin HCl with the unlabeled ligand, and the total binding was calculated from the radioactivity of [^3H]-Ketanserin in the absence of the compound according to the present invention (Vehicle). Finally, the Ki value was calculated from the dose-response curve.
(§7) (The binding activity of the compound according to the present invention was calculated from the following binding inhibition rate (%).)
(§8) Inhibition rate (%)=[1−(c−a)/(b−a)]×100 • a; mean cpm of non-specific binding • b; mean cpm of total binding • c; cpm in the presence of the test compound

[2] = target: human recombinant 5-HT2C receptor (Homo sapiens (Human), UniProt P28335); test: 5-HT2C receptor binding inhibition test ([3H]-Mesulergine); conditions: Jump-In HEK cell membrane, [3H]-Mesulergine
Sequence of human recombinant 5-HT2C receptor (P28335 33-458): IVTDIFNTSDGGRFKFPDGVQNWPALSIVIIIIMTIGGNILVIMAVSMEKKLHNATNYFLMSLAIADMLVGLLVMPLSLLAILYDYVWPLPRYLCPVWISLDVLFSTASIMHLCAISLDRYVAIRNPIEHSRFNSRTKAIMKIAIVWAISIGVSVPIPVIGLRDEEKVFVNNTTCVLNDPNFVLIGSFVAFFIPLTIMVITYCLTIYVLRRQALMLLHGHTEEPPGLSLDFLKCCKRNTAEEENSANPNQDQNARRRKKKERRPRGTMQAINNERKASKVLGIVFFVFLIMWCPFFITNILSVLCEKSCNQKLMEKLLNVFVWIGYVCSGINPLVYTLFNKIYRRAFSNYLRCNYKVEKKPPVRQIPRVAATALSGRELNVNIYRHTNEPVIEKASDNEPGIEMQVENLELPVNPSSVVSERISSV
Procedure: as §1
Cell membrane: Jump-In HEK cell membrane (expressing human recombinant 5-HT2C receptor)
as §2
Radioactive ligand: [^3H]-Mesulergine around Kd value calculated by the following method
as §3
as §4, with “[…]” for “4°”, “The radioactivity of [^3H]-Ketanserin bound to the 5-HT2A receptor was measured using Microbeta2 (PerkinElmer) at a measurement time of 1 min/well.” left out
as §5
as §6, with “37° C.” for “room temperature (25° C.)”, “2” for “1.5”, “The radioactivity of [^3H]-Ketanserin bound to the 5-HT2A receptor was measured using Microbeta2 (PerkinElmer) at a measurement time of 1 min/well.” left out, “[^3H]-Mesulergine” for “[^3H]-Ketanserin”
as §7, §8

[3] = read-out: human serotonin 5-HT2A receptor binding activity, Ki value
[4] = read-out: human serotonin 5-HT2C receptor binding inhibitory activity, Ki value

Sequence of human recombinant 5-HT2A receptor (P28223 whole entry): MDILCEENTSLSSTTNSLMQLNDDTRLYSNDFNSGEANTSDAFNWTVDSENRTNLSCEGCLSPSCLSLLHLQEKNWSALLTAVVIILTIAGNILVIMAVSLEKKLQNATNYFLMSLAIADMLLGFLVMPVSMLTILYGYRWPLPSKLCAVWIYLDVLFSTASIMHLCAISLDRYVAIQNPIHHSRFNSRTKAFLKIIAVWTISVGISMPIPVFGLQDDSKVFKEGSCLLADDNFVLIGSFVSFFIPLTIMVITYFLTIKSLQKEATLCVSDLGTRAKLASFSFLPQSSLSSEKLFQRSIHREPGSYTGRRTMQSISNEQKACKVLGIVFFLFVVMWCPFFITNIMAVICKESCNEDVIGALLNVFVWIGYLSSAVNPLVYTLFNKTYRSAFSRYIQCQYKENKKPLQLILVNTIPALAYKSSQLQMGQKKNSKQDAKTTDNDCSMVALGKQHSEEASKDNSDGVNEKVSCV

Row | Structure (SMILES) | Ki [1, 3] | Ki [2, 4] | Ki ([1]; read-out: h-5-HT2A Ki) | Ki ([2]; read-out: h-5-HT2C Ki)
1 | CC(C)COc1ccc(CN(Cc2ccn(C)n2)C(=O)NC2CCCN(C)CC2)cc1 (racemic) [Compound I-004] | 4.51 nM | 11.5 nM |  | 
2 | CC(C)COc1ccc(CN(Cc2ccn(C)n2)C(=O)N[C@@H]2CCNC[C@H]2F)cc1 (racemic) [Compound I-018] |  |  | 10 to 100 nM | 10 to 100 nM
3 | CC(C)COc1ccc(CN(Cc2ccc(F)cn2)C(=O)NC2CCN(C)CC23CC3)cc1 (racemic) [Compound I-044] |  |  | < 10 nM | < 10 nM
4 | CC(C)COc1ccc(CN(Cc2ccn(C)n2)C(=O)NC2CCN(C)CC23CC3)cc1 (racemic) [Compound I-045] |  |  | < 10 nM | < 10 nM
5 | CC(C)COc1ccc(CN(Cc2ccn(C)n2)C(=O)NC2CCN(C)C2)cc1 (racemic) [Compound I-054] |  |  | < 10 nM | 
6 | CC(C)COc1ccc(CN(Cc2ccn(C)n2)C(=O)NC2CCN(C)C3(CCC3)C2)cc1 (racemic) [Compound I-067] |  |  | < 10 nM | < 10 nM
7 | CCCCOc1ccc(CN(Cc2coc(C)n2)C(=O)C(F)C2CCN(C)CC2)cc1F (racemic) [Compound I-124] |  |  | < 10 nM | < 10 nM
8 | CC(C)COc1ccc(CN(Cc2ccc(F)cn2)C(=O)N[C@H]2CCNC[C@H]2F)cc1 (single isomer, unassigned) [Compound I-006] | 0.968 nM | 2.47 nM |  | 
9 | CC(C)COc1ccc(CN(Cc2ccc(F)cn2)C(=O)N[C@@H]2CCNC[C@@H]2F)cc1 (single isomer, unassigned) [Compound I-022] |  |  | 10 to 100 nM | 10 to 100 nM
10 | CC(C)COc1ccc(CN(Cc2ccn(C)n2)C(=O)NC2C3CCC2CN(C)C3)cc1 (single isomer, unassigned) [Compound I-075] |  |  | 10 to 100 nM | 10 to 100 nM
11 | CC(C)COc1ccc(CN(Cc2ccsc2)C(=O)NC2CCN(C)CC2)cc1 [Compound I-002] |  |  | < 10 nM | 10 to 100 nM
12 | CN1CCC(NC(=O)N(Cc2ccc(Oc3ccccc3)cc2)Cc2ccn(C)n2)CC1 [Compound I-003] | 9.93 nM | 8.39 nM |  | 
13 | Cc1cc(CN(Cc2ccc(OCC(C)C)cc2)C(=O)NC2CCN(C)CC2)nn1C [Compound I-005] |  |  | < 10 nM | 10 to 100 nM
14 | CC(C)COc1ccc(CN(Cc2ccccn2)C(=O)NC2CCN(C)CC2)cc1 [Compound I-007] |  |  | < 10 nM | 10 to 100 nM
15 | Cc1ccc(CN(Cc2ccc(OCC(C)C)cc2)C(=O)NC2CCN(C)CC2)s1 [Compound I-008] |  |  | < 10 nM | < 10 nM
16 | CC(C)COc1ccc(CN(Cc2cccn2C)C(=O)NC2CCN(C)CC2)cc1 [Compound I-009] |  |  | < 10 nM | 100 to 5000 nM
17 | COc1ccc(CN(Cc2ccn(C)n2)C(=O)NC2CCN(C)CC2)cc1C [Compound I-010] |  |  | 10 to 100 nM | 100 to 5000 nM
18 | CN1CCC(NC(=O)N(Cc2ccc(OCCO)cc2)Cc2ccn(C)n2)CC1 [Compound I-011] |  |  | 100 to 5000 nM | 100 to 5000 nM
19 | CC(C)COc1ccc(CN(Cc2ccn(C)n2)C(=O)CC2CCN(C)CC2)cc1 [Compound I-012] | 6.02 nM | 33 nM |  | 

Row | Structure (SMILES) | Ki [1, 3] | Ki [2, 4] | Ki ([1]; read-out: h-5-HT2A Ki) | Ki ([2]; read-out: h-5-HT2C Ki)
20 | COc1ccc(CN(Cc2ccn(C)n2)C(=O)NC2CCN(C)CC2)c(F)c1 [Compound I-013] |  |  | 10 to 100 nM | 10 to 100 nM
21 | COc1ccc(CN(Cc2ccn(C)n2)C(=O)NC2CCN(C)CC2)cc1F [Compound I-014] |  |  | < 10 nM | 10 to 100 nM
22 | CN1CCC(NC(=O)N(Cc2ccc3c(c2)CCO3)Cc2ccn(C)n2)CC1 [Compound I-015] | 45.5 nM |  |  | 
23 | CC(C)COc1ccc(CN(Cc2ccc(F)cn2)C(=O)NC2CCNCC2)cc1 [Compound I-017] |  |  | < 10 nM | < 10 nM
24 | CC(C)COc1ccc(CN(Cc2ccncn2)C(=O)NC2CCN(C)CC2)cc1 [Compound I-019] |  |  | 10 to 100 nM | 100 to 5000 nM
25 | CC(C)COc1ccc(CN(Cc2cnccn2)C(=O)NC2CCN(C)CC2)cc1 [Compound I-020] |  |  | 10 to 100 nM | 10 to 100 nM
26 | CCCOc1ccc(CN(Cc2ccc(F)cn2)C(=O)NC2CCN(C)CC2)cc1 [Compound I-021] |  |  | < 10 nM | < 10 nM
27 | Cc1cccnc1CN(Cc1ccc(OCC(C)C)cc1)C(=O)NC1CCN(C)CC1 [Compound I-023] |  |  | < 10 nM | 10 to 100 nM
28 | CC(C)COc1ccc(CN(Cc2ccco2)C(=O)NC2CCN(C)CC2)cc1 [Compound I-024] |  |  | < 10 nM | < 10 nM
29 | CC(C)COc1ccc(CN(Cc2ccncc2)C(=O)NC2CCN(C)CC2)cc1 [Compound I-052] |  |  | 10 to 100 nM | 
30 | CC(C)COc1ccc(CN(Cc2ccnn2C)C(=O)NC2CCN(C)CC2)cc1 [Compound I-053] |  |  | 100 to 5000 nM | 
31 | CC(C)COc1ccc(CN(Cc2cc(-c3ccccc3)n(C)n2)C(=O)NC2CCN(C)CC2)cc1 [Compound I-055] |  |  | 10 to 100 nM | 
32 | CC(C)COc1ccc(CN(Cc2cc(C(F)(F)F)ccn2)C(=O)NC2CCN(C)CC2)cc1 [Compound I-056] |  |  | 10 to 100 nM | 
33 | CC(C)COc1ccc(CN(Cc2cccnc2)C(=O)NC2CCN(C)CC2)cc1 [Compound I-057] |  |  | 100 to 5000 nM | 
34 | CC(C)COc1ccc(CN(Cc2ccn(C)n2)C(=O)N[C@@H]2C[C@H]3CC[C@@H](C2)N3C)cc1 [Compound I-062] |  |  | 10 to 100 nM | 
35 | CC(C)COc1ccc(CN(Cc2ccn(C)n2)C(=O)NC2CCN(C3COC3)CC2)cc1 [Compound I-071] |  |  | 100 to 5000 nM | 
36 | CNC(=O)CN1CCC(NC(=O)N(Cc2ccc(OCC(C)C)cc2)Cc2ccn(C)n2)CC1 [Compound I-072] |  |  | 100 to 5000 nM | 
37 | CC(C)COc1ccc(CN(Cc2ccn(C)n2)C(=O)N[C@H]2C[C@H]3CCC[C@@H](C2)N3C)cc1 [Compound I-073] |  |  | 100 to 5000 nM | 
38 | CC(C)COc1ccc(CN(Cc2ccn(C)n2)C(=O)N[C@@H]2C[C@H]3CCC[C@@H](C2)N3C)cc1 [Compound I-074] |  |  | < 10 nM | 

— US20240083872A1, “CYCLIC AMINE DERIVATIVES HAVING SEROTONIN RECEPTOR BINDING ACTIVITY” (Shionogi & Co., Ltd., priority 2020, published 2024)
